In PMC12648656, “Palladium(II) Complexes with Noncovalent Interactions with DNA: Solution Speciation Controlled by Solvent Identity, pH, and Concentration” (Inorganic Chemistry, 2025):

How the values were obtained:
[1] = Stability and DMSO coordination in DMSO by 1H NMR; format: physicochemical
Experimental: (a) Complex (2) solutions in DMSO (D2O) investigated by NMR spectroscopy: Trying to investigate if the higher concentration is responsible for the complex transformation process in DMSO, we monitored the solution of complex (2) at 0.5 and 1 mM by ^1H NMR spectroscopy (Figure a). We could clearly see that complex (2) is only detected pure at a concentration of 0.5 mM.
NMR spectra were recorded at room temperature, using a two-channel 300 MHz Bruker Avance III-HD Nanobay spectrometer equipped with a 5 mm BBO 1H/X probe and Z gradients, located at the Interdepartmental Investigation Service (SIdI). DMSO-d 6 was used as the solvent (containing 0.05% (v/v) tetramethylsilane (TMS) as a reference). Chemical shift values are given in parts per million relative to the residual TMS signals. The following abbreviations were used: s (singlet), d (doublet), and m (multiplet). Elemental analyses were performed on a LECO CHNS-932 elemental analyzer located at SIdI. Mass spectra were recorded using FAB (fast atom bombardment) in a Waters VG AutoSpec mass spectrometry unit and using MALDI (matrix-assisted laser desorption/ionization) with a Bruker Ultraflex III (MALDI-TOF/TOF) mass spectrometry unit, both located at SIdI. Infrared (IR) spectra were recorded using a PerkinElmer Model 283 spectrometer with an attenuated total reflectance (ATR) MIRacle Single Reflection Horizontal accessory and equipped with CsI optical windows for spectra between 600 and 200 cm^–1 in Nujol mull preparations. Absorbance spectra were recorded using a Thermo Evolution 220 spectrophotometer to record the UV–visible region, equipped with temperature control within ±0.1 °C. Viscosity measurements were performed using an A&D SV-1A vibro viscometer. HPLC analyses were carried out utilizing a 1200 Infinity series HPLC system provided by Agilent Technologies coupled to a photodiode array detector.

[2] = Stability under light in DMSO by UV-vis; format: physicochemical; details: first 2.5 h
From the text: The stability of the stock solutions and the effect of diffuse solar irradiation were monitored in DMSO by UV–visible (UV–vis, see Methods) spectra in the 260 to 860 nm wavelength range, and the path length was 1 cm. The initial sample was divided equally into two portions for the stability studies; one portion was irradiated with diffuse light and followed over time, while the other one was stored, protected from light, and measured 1 day after dissolution.

[3] = HPLC analysis of aqueous solution integrity; format: physicochemical; details: 20 μM in 3% DMSO aqueous solution, after 24 h, 254 nm
Experimental: Prior to the injection to the column, 20 μL was taken and diluted with 180 μL of HPLC-grade acetonitrile at various time points (t = 0 and 24 h). 20 μL of this diluted sample was injected in the Zorbax Eclipse Plus C18 column (4.6 × 100 mm, 3.5 μm): flow rate, 1 mL/min; detection, UV 254 nm; flow solvent system A/B (acetonitrile/water, v/v): 70:30 and analyzed with 254 nm radiation up to 10 min.

[4] = target: T1, hen egg white lysozyme (HEWL) (Gallus gallus, UniProt P00698); test: Reaction with lysozyme followed by UV-vis at 280 nm, pseudo-first-order kinetics; format: binding; details: metal:protein 3:1, 5 mM Tris/3% DMSO, 37 °C, absorbance at 280 nm
T1 construct: a model protein, namely HEWL (hen egg white lysozyme), was also studied; from tissue; host or cells: hen egg white (from the protein's name)
Experimental: The interaction of complexes (2) and (3) with hen egg white lysozyme (HEWL) was investigated using a 10^–5 M solution of the protein. Lysozyme is a widely used model protein for studying the binding of potential metallodrugs. The sample preparation for this assay was carried out using the same protocol of the samples for the DNA interactions studies by UV–vis spectrophotometry. The integrity of the enzyme was checked in each experiment, with a comparison of fresh and incubated samples. UV–vis spectra were recorded before and after incubation with the complex (dissolved in 97% 5 mM Tris/3% DMSO) for 24 h at 37 °C. A metal to protein ratio of 3:1 was used for these studies, a ratio that affords similar results to 10:1 and eases the sample preparation. The experimental time-dependent profiles of the spectra were analyzed as pseudo-first-order reactions by plotting the variation of the absorbance as a function of time.

[5] = system: MCF7 human breast cancer cell line; test: In vitro cytotoxicity, MTT; format: cell-based; details: MCF7, 72 h exposure
Experimental: (§1) Cell culture reagents were obtained from Merck, and plasticware was obtained from Sarstedt. Human colon adenocarcinoma cell line Colo 205 (ATCC CCL-222) and MCF7 (ATCC HTB-22) breast cancer cells were purchased from LGC Promochem. Cancer cells were cultured in RPMI 1640 medium supplemented with 10% heat-inactivated fetal bovine serum, 2 mM L-glutamine, and 1 mM sodium pyruvate and buffered with 100 mM HEPES. The cells were incubated at 37 °C in a 5% CO2, 95% air atmosphere and were detached with Trypsin-Versene (EDTA) solution for 5 min at 37 °C.
(§2) The tested ligands were dissolved in DMSO, and the stock solutions (5 mM) were diluted in complete culture medium. Two-fold serial dilutions of compounds were made in 100 μL of the medium, horizontally. The semiadherent colon adenocarcinoma cells were treated with Trypsin-Versene (EDTA) solution. They were adjusted to a density of 1 × 10^4 cells in 100 μL of RPMI 1640 medium and were added to each well, with the exception of the medium control wells. The final volume of the wells containing compounds and cells was 200 μL. The plates containing the cells were incubated at 37 °C for 72 h; at the end of the incubation period, 20 μL of MTT solution (5 mg/mL) was added to each well. After incubation at 37 °C for 4 h, 100 μL of sodium dodecyl sulfate solution (10% in 0.01 M HCl) was added to each well, and the plates were further incubated at 37 °C overnight. Cell growth was determined by measuring the optical density (OD) at 540 and 630 nm with a Multiskan EX plate reader (Thermo Labsystems).
(§3) Curves for the data obtained on cancer cells were fitted by GraphPad Prism software using the sigmoidal dose–response model (comparing variable and fixed slopes). The IC50 values were always obtained from at least three independent experiments.

[6] = system: Colo 205 human colon cancer cell line; test: In vitro cytotoxicity, MTT; format: cell-based; details: Colo 205, 72 h exposure
Experimental: as §1, §2, §3

calf thymus-DNA (CT-DNA) = test: UV-vis titration with CT-DNA; format: binding; details: complex/DNA ratio 0 to 0.79; 5 mM Tris, 50 mM NaCl, pH 7.40, 25 °C
Experimental: To investigate the potential binding ability of the palladium complexes (2) and (3) with DNA, UV–vis titrations (240 to 700 nm) were performed at room temperature. During the titrations, the CT-DNA concentration (5.08 × 10^–5 M) was kept constant, while the concentration of each complex (0 to 2.00 × 10^–5 M) was varied. The changes in the typical absorbance of CT-DNA at 260 nm were monitored after equilibration (10 min) and after 1 h of incubation at 37 °C. […] Control experiments with DMSO were performed, and no changes in the CT-DNA spectrum were observed.

T1 sequence (P00698 19-147): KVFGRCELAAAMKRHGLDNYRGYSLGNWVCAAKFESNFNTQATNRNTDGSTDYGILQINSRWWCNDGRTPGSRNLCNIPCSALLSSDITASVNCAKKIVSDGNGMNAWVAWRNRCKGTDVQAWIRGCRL

Q: What does the source list for `Clc1ccc(N=C2N[N+](=Cc3c[nH]cn3)[Pd-2]3([S]C(Nc4ccc(Cl)cc4)=N[N+]3=Cc3c[nH]cn3)[S]2)cc1` (stereo not drawn) [(2), Bis(1H-imidazole-4-carboxaldehyde-4N-p-chlorophenylthiosemicarbazonato)palladium(II)]?
A: molar fraction of DMSO-coordinated species (complex (3)) formed ([1]; 0.5 mM): 0%; molar fraction of DMSO-coordinated species (complex (3)) formed ([1]; 3 mM, does not increase over 24 h): 8%; time 1H NMR spectrum remains stable ([1]; in DMSO): up to 24 h; spectral changes when not protected from light [2]: only minor changes; integral of the HPLC signal of intact complex [3]: only slightly diminished; observed rate constant k obs [4]: (8.83 ± 0.05) × 10^–5 s^–1; IC50 [5]: 1.55 ± 0.03 µM; IC50 [6]: 11.8 ± 0.35 µM; change of CT-DNA absorption at 260 nm (calf thymus-DNA (CT-DNA)): absorption values of DNA–complex samples increase
